“Also recorded” adds a separate entry of the source.
Key:
Type in all cases: in vivo
[1] = tested on: male CF1 mice; assay: Mouse maximal electroshock (MES) test, male CF1 mice; conditions: for Percentage protection from Tonic Hind limb Extension: Male CF1 mice
Procedure: (§1) Animals. Male NIH Swiss or CF1 mice (Charles-Rivers, 22-34g) were used in the present study. In most of the experiments, male CF1 mice were used. In the experiment exploring the strain difference between CBD and CBG efficacy in the MES test, these compounds were also tested in male NIH Swiss mice. All experiments involving animals complied with the ARRIVE guidelines of the National Centre for the Replacement, Refinement, and Reduction of Animals in Research and were performed in accordance with the National Institutes of Health Guide for the Care and Use of Laboratory Animals (NIH publication No. 8023, revised in 1978) under protocols approved by the University of California, Davis, Institutional Animal Care and Use Committee.
(§2) All the cannabinoids were prepared in ethanol: Cremophor: saline in the ratio of 2:1:17. These were administered Intraperitoneally (IP) in a dose volume of 10 ml/kg.
(§3) Mouse maximal electroshock test. Samples of CBD, both from decarboxylation of cannabidiolic acid (CBDA) and a commercial source, were tested in parallel as a comparator. Samples of CBD and CBG were prepared by decarboxylating their respective active precursors CBDA and cannabigerolic acid (CBGA; 95+% pure) by heating at 102° C. (215° F.) for 60 min. The precursor compounds were isolated from hemp. For comparison, the antiseizure activity of pure, commercial, hemp-derived CBD and chemically synthesized CBG in crystalline form was also determined in the MES test. Also investigated was whether CBDA and CBGA have antiseizure potential at the highest dose tested (150 mg/kg) in this model. Male CF1 mice were used in the current study. Sixty min after IP injection of the cannabinoids, the animals were subjected to a 0.2-s, 60-Hz, 50-mA electrical stimulus delivered with corneal electrodes (5 mm diameter stainless steel balls) wetted with 0.9% saline. Animals failing to show THLE were scored as protected. In the time-response curve experiment, CBG was administered at different times before the MES test. In most of the experiments, male CF1 mice were used. In the experiment exploring the strain difference between CBD and CBG efficacy in the MES test, these compounds were additionally tested in male NIH Swiss mice.

[2] = tested on: male NIH Swiss mice; assay: Mouse maximal electroshock (MES) test, male NIH Swiss mice (strain difference); conditions: for Percentage protection from Tonic Hind limb Extension: Male NIH Swiss mice; for effect in MES test: male NIH Swiss mice
Procedure: as §1, §2, §3

[3] = tested on: male CF1 mice; assay: Mouse pentylenetetrazol (PTZ) test
Procedure: as §1, §2
Mouse pentylenetetrazol (PTZ) test. Sixty min after IP injection of either cannabidiol (CBD) or cannabigerol (CBG) in male CF1 mice, the animals were challenged with 80 or 100 mg/kg PTZ delivered via intraperitoneal (IP) route of administration. The onset of myoclonic jerks, generalized clonus, tonus/tonic extension, and mortality was observed. The percentage of animals was further calculated that underwent these phases caused by PTZ. Failure to observe such phases or delayed onset is considered as protection.

[4] = 150 mg/kg IP, 60 min before MES, male CF1 mice
[5] = 50 mg/kg IP, 60 min before MES, male CF1 mice
[6] = 100 mg/kg IP, 60 min before MES, male CF1 mice
[7] = 200 mg/kg IP, 60 min before MES, male CF1 mice
[8] = male CF1 mice, IP, 60 min before MES
[9] = protection from THLE, male CF1 mice, IP, 60 min before MES
[10] = dose 100, 1 h before MES (0.2-s, 60-Hz, 50-mA)
[11] = dose 150, 1 h before MES (0.2-s, 60-Hz, 50-mA)
[12] = PTZ 80 mg/kg IP, treatment 100 mg/kg IP 1 h before
[13] = PTZ 80 mg/kg IP, treatment 150 mg/kg IP 1 h before
[14] = PTZ 100 mg/kg IP, treatment 150 mg/kg IP 1 h before
[15] = high dose PTZ test (100 mg/kg), treatment 150 mg/kg IP

C=C(C)[C@@H]1CCC(C)=C[C@H]1c1c(O)cc(CCCCC)c(C(=O)O)c1O [Cannabidiolic acid (CBDA), cannabidiolic acid]
Percentage Protection [1, 4]: 0% | antiseizure activity ([1]; highest dose tested (150 mg/kg), male CF1 mice): no antiseizure activity

CCCCCc1cc(O)c2c(c1)OC(C)(CCC=C(C)C)C=C2 (stereo not drawn) [CBC oil, cannabichromene]
Percentage Protection [1, 5]: 11.1% | Percentage Protection [1, 6]: 12.5% | Percentage Protection [1, 4]: 12.5% | Percentage Protection [1, 7]: 25% | fraction of animals protected ([1]; 250 mg/kg IP, 60 min before MES, male CF1 mice): 25% | potency relative to CBD and CBG in MES test [1, 8]: less potent than CBD and CBG

C=C(C)[C@@H]1CCC(C)=C[C@H]1c1c(O)cc(CCCCC)cc1O [Crystalline hemp derived CBD, cannabidiol]
Percentage Protection [1, 5]: 0% | Percentage Protection ([1]; 65 mg/kg IP, 60 min before MES, male CF1 mice): 37.5% | Percentage Protection ([1]; 75 mg/kg IP, 60 min before MES, male CF1 mice): 37.5% | Percentage Protection ([1]; 85 mg/kg IP, 60 min before MES, male CF1 mice): 50% | Percentage Protection [1, 6]: 75% | Percentage Protection [1, 4]: 75% | ED50 (mg/kg, IP) ([1]; protection from THLE, male CF1 mice, IP, 60 min before MES, listed as commercial CBD): 83.7 ± 5.7 mg/kg

CCCCCc1cc(O)c(C/C=C(\C)CCC=C(C)C)c(O)c1 [cannabigerol]
Percentage Protection [1, 6]: 62.5% | Percentage Protection [1, 4]: 75% | Percentage Protection [1, 7]: 62.5%

C=C(C)[C@@H]1CCC(C)=C[C@H]1c1c(O)cc(CCCCC)cc1O [CBD obtained from CBDA isolates, cannabidiol]
doses at which animals were protected from THLE [1, 8]: 25 to 150 mg/kg | ED50 (mg/kg, IP) [1, 9]: 62.7 ± 5.6 mg/kg

C=C(C)[C@@H]1CCC(C)=C[C@H]1c1c(O)cc(CCCCC)cc1O [CBD, cannabidiol]
Percentage protection from Tonic Hind limb Extension [2, 10]: 12.5% | Percentage protection from Tonic Hind limb Extension [2, 11]: 12.5% | effect in MES test [2]: not protective | Percentage protection from Tonic Hind limb Extension [1, 10]: 100% | Percentage protection from Tonic Hind limb Extension [1, 11]: 100% | effect in MES test ([1]; male CF1 mice): protected animals from Tonic Hindlimb Extension (THLE); also recorded: effective | Death time (s) [3, 12]: None | Onset of generalized clonus [3, 12]: 333.9 ± 174.3 s | Onset of jerks [3, 12]: 138.1 ± 61.9 s | Onset of tonus (s) [3, 12]: None | Percentage animals having generalized clonus [3, 12]: 87.5% | Percentage animals having tonus [3, 12]: None | Percentage mortality [3, 12]: 0% | Percentage of animals having myoclonic jerks [3, 12]: 100% | Death time (s) [3, 13]: None | Onset of generalized clonus [3, 13]: 612.5 ± 515.5 s | Onset of jerks [3, 13]: 95.6 ± 13.3 s | Onset of tonus (s) [3, 13]: None | Percentage animals having generalized clonus [3, 13]: 25% | Percentage animals having tonus [3, 13]: None | Percentage mortality [3, 13]: 0% | Percentage of animals having myoclonic jerks [3, 13]: 100% | Death time (s) [3, 14]: None | Onset of generalized clonus [3, 14]: 329.3 ± 152.3 s | Onset of jerks [3, 14]: 63.6 ± 4.8 s | Onset of tonus [3, 14]: 1362.5 ± 888.5 s | Percentage animals having generalized clonus [3, 14]: 100% | Percentage animals having tonus [3, 14]: 25% | Percentage mortality [3, 14]: 0% | Percentage of animals having myoclonic jerks [3, 14]: 100% | effect on generalized clonus ([3]; high dose PTZ test (100 mg/kg)): no difference | latency to onset of myoclonic jerks [3, 15]: increased the latency to onset of myoclonic jerks | protection from tonus phase and mortality [3, 15]: protected animals from undergoing tonus phase and mortality | protection from generalized clonus ([3]; low dose PTZ test (80 mg/kg, IP), treatment 150 mg/kg IP): effective in protecting animals from generalized clonus

CCCCCc1cc(O)c(C/C=C(\C)CCC=C(C)C)c(O)c1 [CBG obtained from CBGA, cannabigerol]
doses at which animals were protected from THLE [1, 8]: 65 to 200 mg/kg | ED50 [1, 9]: 99 ± 7.01 mg/kg

CCCCCc1cc(O)c(C/C=C(\C)CCC=C(C)C)c(O)c1 [CBG, cannabigerol]
Percentage protection from Tonic Hind limb Extension [2, 10]: 12.5% | Percentage protection from Tonic Hind limb Extension [2, 11]: 12.5% | effect in MES test [2]: not protective | Percentage protection from Tonic Hind limb Extension [1, 10]: 62.5% | Percentage protection from Tonic Hind limb Extension [1, 11]: 75% | effect in MES test ([1]; male CF1 mice): protected animals from Tonic Hindlimb Extension (THLE); also recorded: effective | time of maximum response (protection from THLE) after administration ([1]; single IP injection of 100 mg/kg, male CF1 mice, tested 15-240 min): 60 to 120 min | Death time (s) [3, 12]: None | Onset of generalized clonus [3, 12]: 199.1 ± 90.6 s | Onset of jerks [3, 12]: 101.1 ± 50.7 s | Onset of tonus (s) [3, 12]: None | Percentage animals having generalized clonus [3, 12]: 87.5% | Percentage animals having tonus [3, 12]: None | Percentage mortality [3, 12]: 0% | Percentage of animals having myoclonic jerks [3, 12]: 87.5% | Death time (s) [3, 13]: None | Onset of generalized clonus [3, 13]: 117.8 ± 46.8 s | Onset of jerks [3, 13]: 93 ± 26.6 s | Onset of tonus [3, 13]: 852.5 ± 170.5 s | Percentage animals having generalized clonus [3, 13]: 62.5% | Percentage animals having tonus [3, 13]: 25% | Percentage mortality [3, 13]: 0% | Percentage of animals having myoclonic jerks [3, 13]: 100% | Death time [3, 14]: 1082.6 ± 265.5 s | Onset of generalized clonus [3, 14]: 200.8 ± 105.9 s | Onset of jerks [3, 14]: 50.1 ± 3.3 s | Onset of tonus [3, 14]: 1351.3 ± 410.7 s | Percentage animals having generalized clonus [3, 14]: 100% | Percentage animals having tonus [3, 14]: 100% | Percentage mortality [3, 14]: 62.5% | Percentage of animals having myoclonic jerks [3, 14]: 100% | overall effect in PTZ seizure test ([3]; PTZ IP, male CF1 mice): had no effect | protection from mortality ([3]; high dose PTZ): protected some animals from mortality

CCCCCc1cc(O)c(C/C=C(\C)CCC=C(C)C)c(O)c1C(=O)O [Cannabigerolic acid (CBGA), cannabigerolic acid]
Percentage Protection [1, 4]: 25%
